Consider five molecules from the NIST ThermoML archive (doi:10.1016/j.fluid.2015.07.045).

± gives the expanded uncertainty stated by the source.

Experiment in the first series: not given
The settings on record: 298.15 K; 101.33 kPa; Liquid; Vibrating tube method.
What is called mass density is the mass of a sample divided by its volume. `C[n+]1ccn(Cc2ccccc2)c1.[Cl-]` [1-benzyl-3-methyl-1H-imidazolium chloride]: the mass density came out at 1192.8 ± 0.6 kg/m3.
Still for that read-out and setting: as for `CCCCCCn1cc[n+](C)c1.[Cl-]` [1-hexyl-3-methylimidazolium chloride], the figure is 1044.3 ± 0.5 kg/m3.
Same read-out and setting: as for `CCCCCCn1cc[n+](C)c1.[Br-]` [3-hexyl-1-methyl-1H-imidazolium bromide], the figure is 1229.2 ± 0.6 kg/m3; as for `CO` [methanol], 787.1 ± 0.4 kg/m3; as for `COC(C)=O` [methyl ethanoate], 927.3 ± 0.4 kg/m3.

The next series is described as follows: Boiling temperature at pressure P. The settings on record: 101.3 kPa; Liquid; Ebulliometric method (Recirculating still).
As to `CO` [methanol], the “Boiling temperature at pressure P” value is 64.54 ± 0.1 °C.
On the same count and under the same terms, as for `COC(C)=O` [methyl ethanoate], the figure is 57.1 ± 0.1 °C.
